Data taken from US10301272B2, “Carboxamide or sulfonamide substituted thiazoles and related derivatives as modulators for the orphan nuclear receptor ROR[γ]” (Phenex Pharmaceuticals AG, priority 2012, dated 2019).
Read-outs that look alike come from different tables or passages of the source.

What was measured:
RORγ = RORγ (Homo sapiens, UniProt P51449); experiment: RORγ Gal4 Reporter Gene Assay; type: cell-based; details: for IC50: 293T cells
In short: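 Cells at 5×10^5/well were transfected with RORγ fragments fused to the GAL4 DNA-binding domain (CMV promoter), a 5×GAL4-site firefly luciferase reporter and CMV-Renilla luciferase for normalization. About 4 h later serum-free MEM and compound were added (vehicle ≤0.1%). Cultures at 37 °C, 5% CO2; at least triplicates.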

[1] = target: RORγ ligand binding domain (LBD) (Homo sapiens (Human), UniProt P51449); experiment: TR-FRET Activity Assay (ligand sensing assay, LANCE); details: for pIC50 (FRET): TR-FRET, interaction of RORγ-LBD with coactivator peptide
Chain of RORγ ligand binding domain (LBD) (P51449 269-508): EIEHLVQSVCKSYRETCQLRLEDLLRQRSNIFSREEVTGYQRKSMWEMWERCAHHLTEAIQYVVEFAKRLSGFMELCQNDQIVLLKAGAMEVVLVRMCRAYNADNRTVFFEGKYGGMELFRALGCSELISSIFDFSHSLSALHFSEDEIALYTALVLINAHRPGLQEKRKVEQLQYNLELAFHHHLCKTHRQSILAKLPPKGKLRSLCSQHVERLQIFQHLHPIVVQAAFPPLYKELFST
From the text: The ligand-binding domain (LBD) of RORγ was expressed as fusion protein with GST in BL-21 (BL3) cells using the vector pDEST15. Cells were lysed by lysozyme-treatment and sonication, and the fusion proteins purified over glutathione sepharose (Pharmacia) according to the manufacturers instructions. For screening of compounds for their influence on the RORγ-peptide interaction, the LANCE technology (Perkin Elmer) was applied. This method relies on the binding dependent energy transfer from a donor to an acceptor fluorophor attached to the binding partner of interest. For ease of handling and reduction of background from compound fluorescence LANCE technology makes use of generic fluorophore labels and time resolved detection assays were done in a final volume of 25 μL in a 384 well plate, in a Tris-based buffer system (20 mM Tris-HCl pH 6.8; 60 mM KCl, 1 mM DTT; 5 mM MgCl2; 35 ng/μL BSA), containing 20-60 ng/well recombinantly expressed RORγ-LBD fused to GST, 200-600 nM N-terminally biotinylated peptide, 200 ng/well Streptavidin-xlAPC conjugate (Prozyme) and 6-10 ng/well Eu W1024-antiGST (Perkin Elmer). DMSO content of the samples was kept at 1%.
After generation of the Tris-based buffer system, the potentially RORγ modulating ligands were diluted. […] The LANCE signal was detected by a Perkin Elmer EnVision™ Multilabel Counter. […] Ligands that promote the complex formation induce a concentration-dependent increase in time-resolved fluorescent signal.
Y is the response. Y starts at Bottom and goes to Top with a sigmoidal shape.
This is identical to the “four parameter logistic equation”. The IC50 values are calculated using this equation.

[2] = firefly (FF) luciferase, read-out: pIC50 (FF) (converted)
[3] = renilla normalised (RENnorm) luciferase, read-out: pIC50 (REN) (converted)

Chain of RORγ (P51449 whole entry, looked up, the tested form may be a part): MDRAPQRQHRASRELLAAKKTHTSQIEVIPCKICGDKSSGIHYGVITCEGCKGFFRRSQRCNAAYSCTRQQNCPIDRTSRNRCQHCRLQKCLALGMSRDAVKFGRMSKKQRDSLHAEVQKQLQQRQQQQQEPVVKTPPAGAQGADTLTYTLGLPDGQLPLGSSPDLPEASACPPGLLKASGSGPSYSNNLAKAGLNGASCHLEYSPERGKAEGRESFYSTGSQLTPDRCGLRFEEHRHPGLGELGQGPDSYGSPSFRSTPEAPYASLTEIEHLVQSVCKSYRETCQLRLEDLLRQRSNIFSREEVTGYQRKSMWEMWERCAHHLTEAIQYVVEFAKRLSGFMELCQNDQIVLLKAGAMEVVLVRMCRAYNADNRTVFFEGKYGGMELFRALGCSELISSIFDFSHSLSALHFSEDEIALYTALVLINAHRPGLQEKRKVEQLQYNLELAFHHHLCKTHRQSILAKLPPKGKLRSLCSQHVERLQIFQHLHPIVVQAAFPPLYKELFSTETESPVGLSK

| IC50 [1] | Compound | pIC50 (FF) (RORγ) | pIC50 (REN) (RORγ) | pIC50 (FRET) [1] | IC50 (RORγ; [2]) | IC50 (RORγ; [3]) |
| --- | --- | --- | --- | --- | --- | --- |
| – | CC(C)(C)NS(=O)(=O)c1ccc(-c2sc(C(=O)NC3CCS(=O)(=O)CC3)nc2C2CCCCC2)c2ccccc12 [300/2] | 6.9/8.2/8.2 | 6.9/8.2/8.2 | 6.9/8.2/8.2 | – | – |
| – | CCCc1nc(C(=O)NC2CCS(=O)(=O)CC2)sc1-c1ccc(S(=O)(=O)NC(C)(C)C)c(Cl)c1Cl [300/5] | 7.0/7.4/7.5 | 7.0/7.4/7.5 | 7.0/7.4/7.5 | – | – |
| 0.2 µM | CCCc1nc(C(=O)N[C@H]2C[C@H](C(=O)O)C2)sc1-c1ccc(S(=O)(=O)NC(C)(C)C)c(Cl)c1Cl [300/6] | – | – | – | 0.126 µM | 0.158 µM |
| – | CC1CCCCN1C(=O)c1nc(C(=O)NCC(C)(C)O)sc1-c1ccc(S(=O)(=O)NC(C)(C)C)c2ccccc12 (stereo not drawn) [304/7] | 6.1/7.3/7.3 | 6.1/7.3/7.3 | 6.1/7.3/7.3 | – | – |
| – | CC1CC(C)CN(C(=O)c2nc(C(=O)NCC(C)(C)O)sc2-c2ccc(S(=O)(=O)NC(C)(C)C)c3ccccc23)C1 (stereo not drawn) [304/8] | 6.0/6.9/6.9 | 6.0/6.9/6.9 | 6.0/6.9/6.9 | – | – |
| – | CC(C)(C)c1cc(-c2nc(C(N)=O)sc2CC2CCCCC2)cc(C(C)(C)C)c1 [Example 1, 5-(Cyclohexylmethyl)-4-(3,5-di-tert-butylphenyl)thiazole-2-carboxamide] | 6.5/5.8/5.8 | 6.5/5.8/5.8 | 6.5/5.8/5.8 | – | – |
| – | CC(C)(C)c1cc(-c2nc(S(N)(=O)=O)sc2CC2CCCCC2)cc(C(C)(C)C)c1 [Example 2, 5-(Cyclohexylmethyl)-4-(3,5-di-tert-butylphenyl)thiazole-2-sulfonamide] | 5.9/6.1/6.0 | 5.9/6.1/6.0 | 5.9/6.1/6.0 | – | – |
| – | CC(=O)NS(=O)(=O)c1nc(-c2cc(C(C)(C)C)cc(C(C)(C)C)c2)c(CC2CCCCC2)s1 [Example 3, N-((5-(Cyclohexylmethyl)-4-(3,5-di-tert-butylphenyl)thiazol-2-yl)sulfonyl)acetamide] | – | – | 5.1 | > 20 µM | > 20 µM |
| – | CC(C)(C)c1cc(-c2sc(S(N)(=O)=O)nc2CC2CCCCC2)cc(C(C)(C)C)c1 [Example 4, 4-(Cyclohexylmethyl)-5-(3,5-di-tert-butylphenyl)thiazole-2-sulfonamide] | 6.8/6.4/6.4 | 6.8/6.4/6.4 | 6.8/6.4/6.4 | – | – |
| – | CC(C)(C)c1cc(-c2sc(C(N)=O)nc2CC2CCCCC2)cc(C(C)(C)C)c1 [Example 5, 4-(Cyclohexylmethyl)-5-(3,5-di-tert-butylphenyl)thiazole-2-carboxamide] | 6.7/6.3/6.1 | 6.7/6.3/6.1 | 6.7/6.3/6.1 | – | – |
| – | COC(=O)C(C)(C)CCNC(=O)c1nc(CC2CCCCC2)c(-c2cc(C(C)(C)C)cc(C3(C)CC3)c2)s1 [Example 6, Methyl 4-(5-(3-(tert-butyl)-5-(1-methylcyclopropyl)phenyl)-4-(cyclohexylmethyl)thiazole-2-carboxamido)-2,2-dimethylbutanoate] | 6.7/6.2/6.3 | 6.7/6.2/6.3 | 6.7/6.2/6.3 | – | – |
| – | CC(C)(C)NS(=O)(=O)c1ccc(-c2sc(C(=O)NCC3(C(N)=O)CCOCC3)nc2CC2CCCCC2)cc1C(C)(C)C [Example 6/1] | 6.5/7.5/7.7 | 6.5/7.5/7.7 | 6.5/7.5/7.7 | – | – |
| – | CC(C)(CCNC(=O)c1nc(CC2CCCCC2)c(-c2cc(C(C)(C)C)cc(C3(C)CC3)c2)s1)C(=O)O [Example 7, 4-(5-(3-(tert-Butyl)-5-(1-methylcyclopropyl)phenyl)-4-(cyclohexylmehthyl)thiazole-2-carboxamido)-2,2-dimethylbutanoic acid] | 6.3/7.0/7.0 | 6.3/7.0/7.0 | 6.3/7.0/7.0 | – | – |
| – | CC(C)(C)NS(=O)(=O)c1ccc(-c2sc(C(=O)NCCC(C)(C)C(=O)O)nc2CC2CCCCC2)cc1C(C)(C)C [Example 7/1] | 6.1/6.8/6.9 | 6.1/6.8/6.9 | 6.1/6.8/6.9 | – | – |
| – | CC(C)(C)c1cc(-c2sc(C(=O)NC3CCOCC3)nc2CC2CCCCC2)cc(C2(C)CC2)c1 [Example 8, 5-(3-(tert-Butyl)-5-(1-methylcyclopropyl)phenyl)-4-(cyclohexylmethyl)-N-(tetrahydro-2H-pyran-4-yl)thiazole-2-carboxamide] | 7.0/7.3/7.5 | 7.0/7.3/7.5 | 7.0/7.3/7.5 | – | – |
| – | CC(C)(C)NS(=O)(=O)c1ccc(-c2sc(C(=O)NCCC(C)(C)C(=O)O)nc2CC2CCCCC2)cc1C(F)(F)F [Example 9/1] | 6.5/7.4/7.4 | 6.5/7.4/7.4 | 6.5/7.4/7.4 | – | – |
| – | CC(C)(C)NS(=O)(=O)c1ccc(-c2sc(C(=O)NCCC(C)(C)C(N)=O)nc2CC2CCCCC2)cc1C(F)(F)F [Example 10, N-(4-Amino-3,3-dimethyl-4-oxobutyl)-5-(4-(N-(tert-butyl)sulfamoyl)-3-(trifluoromethyl)phenyl)-4-(cyclohexylmethyl)thiazole-2-carboxamide] | 5.9/6.9/7.0 | 5.9/6.9/7.0 | 5.9/6.9/7.0 | – | – |
| – | CNC(=O)C(C)(C)CCNC(=O)c1nc(CC2CCCCC2)c(-c2ccc(S(=O)(=O)NC(C)(C)C)c(C(F)(F)F)c2)s1 [Example 10/1] | 6.2/7.0/7.1 | 6.2/7.0/7.1 | 6.2/7.0/7.1 | – | – |
| – | CC(C)(C)c1cc(-c2sc(S(=O)(=O)NC(=O)OCc3ccccc3)nc2CC2CCCCC2)cc(C2(C)CC2)c1 [Example 12, Benzyl (5-(3-(tert-butyl)-5-(1-methylcyclopropyl)phenyl)-4-(cyclohexylmethyl)thiazol-2-yl)sulfonylcarbamate] | – | – | 5.5 | > 20 µM | > 20 µM |
| – | CC(C)(C)c1cc(-c2sc(S(N)(=O)=O)nc2CC2CCCCC2)cc(C2(C)CC2)c1 [Example 13, 5-(3-(tert-Butyl)-5-(1-methylcyclopropyl)phenyl)-4-(cyclohexylmethyl)thiazole-2-sulfonamide] | 7.0/6.5/6.7 | 7.0/6.5/6.7 | 7.0/6.5/6.7 | – | – |
| – | CC(C)(C)NS(=O)(=O)c1ccc(-c2sc(S(N)(=O)=O)nc2CC2CCCCC2)cc1C(C)(C)C [Example 13/1] | 6.3/6.6/6.6 | 6.3/6.6/6.6 | 6.3/6.6/6.6 | – | – |
| – | N#CC1(NS(=O)(=O)c2ccc(-c3sc(C(=O)N4CC5(CCS(=O)(=O)CC5)C4)nc3CC3CCCCC3)c3ccccc23)CC1 [Example 14, N-(1-Cyanocyclopropyl)-4-(4-(cyclohexylmethyl)-2-(7,7-dioxido-7-thia-2-azaspiro[3.5]nonane-2-carbonyl)thiazol-5-yl)naphthalene-1-sulfonamide] | 6.7/7.6/7.7 | 6.7/7.6/7.7 | 6.7/7.6/7.7 | – | – |
| – | CC(C)(CO)NS(=O)(=O)c1ccc(-c2sc(C(=O)N3CC4(CCS(=O)(=O)CC4)C3)nc2CC2CCCCC2)c2ccccc12 [Example 14/1] | 6.2/7.1/7.1 | 6.2/7.1/7.1 | 6.2/7.1/7.1 | – | – |
| – | CC(C)(C)NS(=O)(=O)c1ccc(-c2sc(C(=O)NC3C[S+]([O-])C3)nc2CC2CCCCC2)cc1C(C)(C)O (stereo not drawn) [Example 15/1] | 6.7/8.0/8.0 | 6.7/8.0/8.0 | 6.7/8.0/8.0 | – | – |
| – | CC(C)(O)CNC(=O)c1nc(CC2CCCCC2)c(-c2ccc(S(N)(=O)=O)c(Cl)c2Cl)s1 [Example 17, 4-(Cyclohexylmethyl)-5-(2,3-dichloro-4-sulfamoylphenyl)-N-(2-hydroxy-2-methylpropyl)thiazole-2-carboxamide] | – | – | 5.0 | > 20 µM | > 20 µM |
| – | NS(=O)(=O)c1c(Cl)cc(-c2sc(C(=O)NC3CCOCC3)nc2CC2CCCCC2)cc1C(F)(F)F [Example 17/1] | 5.6/6.1/6.5 | 5.6/6.1/6.5 | 5.6/6.1/6.5 | – | – |
| – | CCNS(=O)(=O)c1ccc(-c2sc(C(=O)NCC(C)(C)O)nc2CC2CCCCC2)c(Cl)c1Cl [Example 18, 4-(Cyclohexylmethyl)-5-(2,3-dichloro-4-(N-ethylsulfamoyl)phenyl)-N-(2-hydroxy-2-methylpropyl)thiazole-2-carboxamide] | 6.9/8.1/8.0 | 6.9/8.1/8.0 | 6.9/8.1/8.0 | – | – |
| – | COC(c1nc(C(=O)N[C@H]2C[C@H](C(=O)O)C2)sc1-c1ccc(S(=O)(=O)NC(C)(C)C)c(C(C)(C)C)c1)C1CCCCC1 (stereo partly drawn) [Example 19, trans-3-(5-(3-(tert-Butyl)-4-(N-(tert-butyl)sulfamoyl)phenyl)-4-(cyclohexyl(methoxy)methyl)thiazole-2-carboxamido)cyclobutanecarboxylic acid] | 5.4/6.4/6.6 | 5.4/6.4/6.6 | 5.4/6.4/6.6 | – | – |
| – | COC(c1nc(C(=O)NC2CCOCC2)sc1-c1ccc(S(=O)(=O)NC(C)(C)C)c(C(C)(C)C)c1)C1CCCCC1 (stereo not drawn) [Example 19/1] | 6.1/6.7/6.7 | 6.1/6.7/6.7 | 6.1/6.7/6.7 | – | – |
| – | CC(C)(O)CNC(=O)c1nc(CC2CCC2)c(-c2ccc(S(=O)(=O)NC(C)(C)C)c(Cl)c2Cl)s1 [Example 21, 5-(4-(N-(tert-butyl)sulfamoyl)-2,3-dichlorophenyl)-4-(cyclobutylmethyl)-N-(2-hydroxy-2-methylpropyl)thiazole-2-carboxamide] | 7.0/8.1/8.2 | 7.0/8.1/8.2 | 7.0/8.1/8.2 | – | – |
